Measurements reported in patent US11458121B2, “Therapeutic compounds and methods to treat infection” (priority 2017, dated 2022).
In brackets after ≈: the same amount, converted by molar mass.

Columns and labels:
[1] = tested on: P. aeruginosa PAO1; test: Intrinsic MIC assay (CLSI broth microdilution); assay type: cell-based; settings: Pseudomonas aeruginosa, 18 h; P. aeruginosa PAO1; compound alone, without EPI; MIC = lowest concentration inhibiting 90% of growth; read-out: Antibiotic Activity Against P. aeruginosa Intrinsic MIC
Description: As used herein, the term “minimum inhibitory concentration (MIC)” refers to the lowest concentration of a compound (e.g., an antibiotic) that prevents visible growth of a bacterium. Assays for measuring the MIC of a compound are known in the art, for example, as described herein. As used herein, the term “intrinsic MIC” refers the MIC of a compound (e.g., an antibiotic) for the particular bacterial species that has not been pre-exposed to the compound. Intrinsic MIC Assays MIC assays were conducted in accordance with Clinical and Laboratory Standards Institute (CLSI) guidelines for broth microdilution. A 96-well plate containing cation-adjusted Mueller-Hinton (CAMH broth with 2-fold serial dilution of compounds was inoculated with log-phase bacterial at 5×10^5 CFU/mL. The final volume in each well was 100 μL. Each compound was tested in duplicate. The microtiter plates were incubated in an aerobic environment for 18 hours at 37° C. Then the bacterial growth was tested by reading the plate with a VersaMax plate reader (Molecular Devices, Inc.) at 600 nm. The MIC was defined as the lowest compound concentration that inhibited 90% of bacteria growth. The intrinsic MIC of the experimental EPIs was tested with the method described. […] The following Gram-negative bacterial strains were included in these assays: Pseudomonas aeruginosa PAO1

[2] = tested on: E. coli 25922; test: Intrinsic MIC assay (CLSI broth microdilution); assay type: cell-based, Escherichia coli; settings: Escherichia coli, 18 h; E. coli 25922; compound alone, without EPI; read-out: Antibiotic Activity Against E. coli Intrinsic MIC
Description: As used herein, the term “minimum inhibitory concentration (MIC)” refers to the lowest concentration of a compound (e.g., an antibiotic) that prevents visible growth of a bacterium. Assays for measuring the MIC of a compound are known in the art, for example, as described herein. As used herein, the term “intrinsic MIC” refers the MIC of a compound (e.g., an antibiotic) for the particular bacterial species that has not been pre-exposed to the compound. Intrinsic MIC Assays MIC assays were conducted in accordance with Clinical and Laboratory Standards Institute (CLSI) guidelines for broth microdilution. A 96-well plate containing cation-adjusted Mueller-Hinton (CAMH broth with 2-fold serial dilution of compounds was inoculated with log-phase bacterial at 5×10^5 CFU/mL. The final volume in each well was 100 μL. Each compound was tested in duplicate. The microtiter plates were incubated in an aerobic environment for 18 hours at 37° C. Then the bacterial growth was tested by reading the plate with a VersaMax plate reader (Molecular Devices, Inc.) at 600 nm. The MIC was defined as the lowest compound concentration that inhibited 90% of bacteria growth. The intrinsic MIC of the experimental EPIs was tested with the method described. […] The following Gram-negative bacterial strains were included in these assays: Escherichia coli ATCC 25922

[3] = tested on: P. aeruginosa PAO1; test: MIC assay in the presence of a bacterial efflux pump inhibitor (EPI); assay type: cell-based, Pseudomonas aeruginosa; settings: P. aeruginosa PAO1; for Enhancement (intrinsic MIC versus MIC with EPI): fold enhancement with 12.5 ug/ml EPI; for Antibiotic Activity Against P. aeruginosa MIC with EPI: with 12.5 ug/ml of EPI (2S,4R)-4-(ammoniomethyl)-2-((6-(4-fluorophenyl)-1H-indole-2-carboxamido)methyl)pyrrolidin-1-ium
Protocol: The ability of a compound to produce an antibiotic effect can be determined using a method as described in Example 42. […] MIC assays were conducted in accordance with Clinical and Laboratory Standards Institute (CLSI) guidelines for broth microdilution. A 96-well plate containing cation-adjusted Mueller-Hinton (CAMH broth with 2-fold serial dilution of compounds was inoculated with log-phase bacterial at 5×10^5 CFU/mL. The final volume in each well was 100 μL. Each compound was tested in duplicate. The microtiter plates were incubated in an aerobic environment for 18 hours at 37° C. Then the bacterial growth was tested by reading the plate with a VersaMax plate reader (Molecular Devices, Inc.) at 600 nm. The MIC was defined as the lowest compound concentration that inhibited 90% of bacteria growth. MIC Assays in the Presence of a Bacterial Efflux Inhibitor The EPI assay for the purposes of these studies represents a MIC assay in which the MIC of the antibiotic against the bacteria is tested in the presence of an experimental efflux pump inhibitor (EPI). The highest concentration of the EPI present in the assay typically is ½ of the intrinsic MIC of the compound. […] Using serial dilutions of the EPI, its enhancement of antibiotic activity was then evaluated. The relative EPI activity was decided by comparing the MIC of the antibiotic in the presence of the EPI compound with the intrinsic MIC of the antibiotic alone. For comparative purposes, we generally used EPIs at concentration of 12.5 and 6.25 μg/ml against varying concentration of our test antibiotic.

Structure (SMILES)	MIC [1] [µg/mL]	MIC [2] [µg/mL]	Enhancement (intrinsic MIC versus MIC with EPI) [3]	Antibiotic Activity Against P. aeruginosa MIC with EPI [3] [µg/mL]
NC1CCCc2c1[nH]c1ccc(Br)cc21 (stereo not drawn) [Example 1, 6-Bromo-2,3,4,9-tetrahydro-1H-carbazol-1-amine]	32 (≈ 121 µM)	8 (≈ 30.2 µM)	(64x)	0.5
NC1CCCc2c1[nH]c1ccc(-c3ccc(F)cc3)cc21 (stereo not drawn) [Example 2, 6-(4-Fluorophenyl)-2,3,4,9-tetrahydro-1H-carbazol-1-amine]	256 (≈ 913 µM)	16 (≈ 57.1 µM)	(64x)	4
COc1ccc(-c2ccc3[nH]c4c(c3c2)CCCC4N)cc1 (stereo not drawn) [Example 3, 6-(4-Methoxyphenyl)-2,3,4,9-tetrahydro-1H-carbazol-1-amine]	> 256	32 (≈ 109 µM)	(>16x)	16
NC1CCCc2c1[nH]c1ccc(-c3ccc(C(F)(F)F)cc3)cc21 (stereo not drawn) [Example 4, 6-(4-(Trifluoromethyl)phenyl)-2,3,4,9-tetrahydro-1H-carbazol-1-amine]	> 256	16 (≈ 48.4 µM)	(>64x)	4
NC1CCCc2c1[nH]c1cc(Br)ccc21 (stereo not drawn) [Example 5a, 7-Bromo-2,3,4,9-tetrahydro-1H-carbazol-1-amine]	64 (≈ 241 µM)	32 (≈ 121 µM)	(64x)	1
NC1CCCc2c1[nH]c1cccc(Br)c21 (stereo not drawn) [Example 5b, 5-Bromo-2,3,4,9-tetrahydro-1H-carbazol-1-amine]	128 (≈ 483 µM)	16 (≈ 60.3 µM)	(64x)	2
CC(C)(C)OC(=O)NC1CCCc2c1[nH]c1ccc(Br)cc21 (stereo not drawn) [Example 6, Tert-Butyl (6-bromo-2,3,4,9-tetrahydro-1H-carbazol-1-yl)carbamate]	> 256	> 256	(4x)	>64
CNC1CCCc2c1[nH]c1ccc(Br)cc21 (stereo not drawn) [Example 7, 6-Bromo-N-methyl-2,3,4,9-tetrahydro-1H-carbazol-1-amine]	256 (≈ 917 µM)	32 (≈ 115 µM)	(32x)	8
CC(=O)NC1CCCc2c1[nH]c1ccc(Br)cc21 (stereo not drawn) [Example 8, N-(6-Bromo-2,3,4,9-tetrahydro-1H-carbazol-1-yl)acetamide]	> 256	> 256	(4x)	>64
O=C(NC1CCCc2c1[nH]c1ccc(Br)cc21)c1ccccc1 (stereo not drawn) [Example 9, N-(6-Bromo-2,3,4,9-tetrahydro-1H-carbazol-1-yl)benzamide]	> 256	> 256	(4x)	>64
CC(C)(C)OC(=O)NC1CCCc2c1[nH]c1cc(Br)ccc21 (stereo not drawn) [Example 11, Tert-Butyl (7-bromo-2,3,4,9-tetrahydro-1H-carbazol-1-yl)carbamate]	> 256	> 256	(4x)	>64
NC1CCCc2c1[nH]c1ccc(F)cc21 (stereo not drawn) [Example 12, 6-Fluoro-2,3,4,9-tetrahydro-1H-carbazol-1-amine]	128 (≈ 627 µM)	64 (≈ 313 µM)	(64x)	2
NC1CCCc2c1[nH]c1ccc(Cl)cc21 (stereo not drawn) [Example 13, 6-Chloro-2,3,4,9-tetrahydro-1H-carbazol-1-amine]	128 (≈ 580 µM)	16 (≈ 72.5 µM)	(16x)	1
NC1CCCc2c1[nH]c1ccc(C(F)(F)F)cc21 (stereo not drawn) [Example 14, 6-(Trifluoromethyl)-2,3,4,9-tetrahydro-1H-carbazol-1-amine]	64 (≈ 252 µM)	64 (≈ 252 µM)	(32x)	2
NC1CCCc2c1[nH]c1ccc(OC(F)(F)F)cc21 (stereo not drawn) [Example 15, 6-(Trifluoromethoxy)-2,3,4,9-tetrahydro-1H-carbazol-1-amine]	128 (≈ 474 µM)	64 (≈ 237 µM)	(8x)	16
N#Cc1ccc2[nH]c3c(c2c1)CCCC3N (stereo not drawn) [Example 16, 1-Amino-2,3,4,9-tetrahydro-1H-carb azole-6-carbonitrile]	> 256	256 (≈ 1210 µM)	(>8x)	32
NC1CCCc2c1[nH]c1c(Br)cccc21 (stereo not drawn) [Example 17, 8-Bromo-2,3,4,9-tetrahydro-1H-carbazol-1-amine]	> 256	64 (≈ 241 µM)	(>2x)	128
COc1ccc2[nH]c3c(c2c1)CCCC3N.Cl (stereo not drawn) [Example 18, 6-Methoxy-2,3,4,9-tetrahydro-1H-carbazol-1-amine Hydrogen Chloride Salt]	> 256	> 256	(>8x)	32
Cn1c2c(c3cc(Br)ccc31)CCCC2N (stereo not drawn) [Example 19, 6-Bromo-9-methyl-2,3,4,9-tetrahydro-1H-carbazol-1-amine]	256 (≈ 917 µM)	64 (≈ 229 µM)	(4x)	64
Cl.NC1c2[nH]c3ccc(Br)cc3c2CCC1F (stereo not drawn) [Example 20, 6-Bromo-2-fluoro-2,3,4,9-tetrahydro-1H-carbazol-1-amine Hydrogen Chloride Salt]	> 256	64	(>8x)	32
NC1CCCc2c1[nH]c1cc(Cl)c(Cl)cc21 (stereo not drawn) [Example 21, 6,7-Dichloro-2,3,4,9-tetrahydro-1H-carbazol-1-amine]	64 (≈ 251 µM)	8 (≈ 31.4 µM)	(16x)	4
NC1CCCc2c1[nH]c1ccc(Cl)c(Cl)c21 (stereo not drawn) [Example 22, 5,6-Dichloro-2,3,4,9-tetrahydro-1H-carbazol-1-amine]	32 (≈ 125 µM)	4 (≈ 15.7 µM)	(>256x)	<0.125
NCCCNC1CCCc2c1[nH]c1ccc(Br)cc21 (stereo not drawn) [Example 40, N^1-(6-Bromo-2,3,4,9-tetrahydro-1H-carbazol-1-yl)propane-1,3-diamine]	32 (≈ 99.3 µM)	32 (≈ 99.3 µM)		
